ChEMBL document CHEMBL4152332, “Discovery and synthesis of novel magnolol derivatives with potent anticancer activity in non-small cell lung cancer” (Eur J Med Chem, 2018)
Converted amounts (≈) assume the structure as drawn.

Legend:
[1] = tested on: NCI-H1975; assay: Cell cycle arrest in human NCI-H1975 cells assessed as accumulation at G2/M phase at 5 uM after 24 hrs by propidium iodide staining-based flow cytometric analysis (reference value: 20.11%); assay type: functional
[2] = tested on: NCI-H1975; assay: Cell cycle arrest in human NCI-H1975 cells assessed as increase in accumulation at G0/G1 phase after 24 hrs by propidium iodide staining-based flow cytometric analysis; assay type: functional
[3] = tested on: A549; assay: Antiproliferative activity against human A549 cells after 72 hrs by MTT assay; assay type: functional, cell-based; settings: A549, 72 h
[4] = tested on: NCI-H1975; assay: Induction of apoptosis in human NCI-H1975 cells assessed as early apoptotic cells at 10 uM after 48 hrs by annexin V/FITC-propidium iodide staining-based flow cytometric method ( Rvb = 6.09%); assay type: functional
[5] = Apparent aqueous solubility of the compound by HPLC analysis; assay type: physicochemical; settings: aqueous solution
[6] = tested on: HCC827; assay: Potency index, ratio of IC50 for magnolol to IC50 for test compound for antiproliferative activity against human HCC827 cells after 72 hrs by MTT assay; assay type: functional
[7] = tested on: NCI-H1975; assay: Cell cycle arrest in human NCI-H1975 cells assessed as accumulation at G2/M phase at 10 uM after 24 hrs by propidium iodide staining-based flow cytometric analysis (reference value: 20.11%); assay type: functional
[8] = tested on: NCI-H1975; assay: Potency index, ratio of IC50 for magnolol to IC50 for test compound for antiproliferative activity against human NCI-H1975 cells after 72 hrs by MTT assay; assay type: functional
[9] = tested on: NCI-H1975; assay: Induction of apoptosis in human NCI-H1975 cells assessed as late apoptotic cells at 5 uM after 48 hrs by annexin V/FITC-propidium iodide staining-based flow cytometric method ( Rvb = 10.4%); assay type: functional
[10] = tested on: NCI-H1975; assay: Antiproliferative activity against human NCI-H1975 cells after 72 hrs by MTT assay; assay type: functional, cell-based; settings: NCI-H1975, 72 h
[11] = tested on: NCI-H1975; assay: Cell cycle arrest in human NCI-H1975 cells assessed as accumulation at S phase at 10 uM after 24 hrs by propidium iodide staining-based flow cytometric analysis (reference value: 22.93%); assay type: functional
[12] = tested on: NCI-H1975; assay: Induction of apoptosis in human NCI-H1975 cells assessed as early apoptotic cells at 5 uM after 48 hrs by annexin V/FITC-propidium iodide staining-based flow cytometric method ( Rvb = 6.09%); assay type: functional
[13] = tested on: NCI-H1975; assay: Induction of apoptosis in human NCI-H1975 cells assessed as viable cells at 5 uM after 48 hrs by annexin V/FITC-propidium iodide staining-based flow cytometric method ( Rvb = 82.5%); assay type: functional; settings: NCI-H1975, 48 h, read-out: Activity
[14] = tested on: HUVEC; assay: Antimigratory activity against HUVEC after 24 to 48 hrs by phase contrast/fluorescence microscopic analysis; assay type: functional, cell-based; settings: Homo sapiens
[15] = tested on: NCI-H460; assay: Potency index, ratio of IC50 for magnolol to IC50 for test compound for antiproliferative activity against human H460 cells after 72 hrs by MTT assay; assay type: functional
[16] = tested on: NCI-H460; assay: Potency index, ratio of IC50 for honokiol to IC50 for test compound for antiproliferative activity against human H460 cells after 72 hrs by MTT assay; assay type: functional
[17] = tested on: NCI-H1975; assay: Cell cycle arrest in human NCI-H1975 cells assessed as accumulation at G0/G1 phase at 5 uM after 24 hrs by propidium iodide staining-based flow cytometric analysis (reference value: 56.11%); assay type: functional
[18] = tested on: NCI-H1975; assay: Induction of apoptosis in human NCI-H1975 cells assessed as necrotic cells at 10 uM after 48 hrs by annexin V/FITC-propidium iodide staining-based flow cytometric method ( Rvb = 1.01%); assay type: functional
[19] = tested on: HCC827; assay: Potency index, ratio of IC50 for honokiol to IC50 for test compound for antiproliferative activity against human HCC827 cells after 72 hrs by MTT assay; assay type: functional
[20] = tested on: NCI-H1650; assay: Antiproliferative activity against human NCI-H1650 cells after 72 hrs by MTT assay; assay type: functional, cell-based; settings: NCI-H1650, 72 h
[21] = tested on: NCI-H1975; assay: Potency index, ratio of IC50 for honokiol to IC50 for test compound for antiproliferative activity against human NCI-H1975 cells after 72 hrs by MTT assay; assay type: functional
[22] = Antiproliferative activity against human SPC-A1 cells after 72 hrs by MTT assay; assay type: functional, cell-based; settings: SPCA1, 72 h
[23] = tested on: NCI-H1975; assay: Cell cycle arrest in human NCI-H1975 cells assessed as accumulation at G0/G1 phase at 20 uM after 24 hrs by propidium iodide staining-based flow cytometric analysis (reference value: 56.11%); assay type: functional
[24] = tested on: NCI-H1975; assay: Induction of apoptosis in human NCI-H1975 cells assessed as viable cells at 20 uM after 48 hrs by annexin V/FITC-propidium iodide staining-based flow cytometric method ( Rvb = 82.5%); assay type: functional; settings: NCI-H1975, 48 h, read-out: Activity
[25] = tested on: NCI-H1975; assay: Induction of apoptosis in human NCI-H1975 cells assessed as necrotic cells at 5 uM after 48 hrs by annexin V/FITC-propidium iodide staining-based flow cytometric method ( Rvb = 1.01%); assay type: functional
[26] = tested on: NCI-H441; assay: Antiproliferative activity against human H441 cells after 72 hrs by MTT assay; assay type: functional, cell-based; settings: NCI-H441, 72 h
[27] = tested on: NCI-H460; assay: Antiproliferative activity against human H460 cells after 72 hrs by MTT assay; assay type: functional, cell-based; settings: NCI-H460, 72 h
[28] = tested on: NCI-H1975; assay: Cell cycle arrest in human NCI-H1975 cells assessed as accumulation at G2/M phase at 20 uM after 24 hrs by propidium iodide staining-based flow cytometric analysis (reference value: 20.11%); assay type: functional
[29] = tested on: NCI-H1975; assay: Cell cycle arrest in human NCI-H1975 cells assessed as accumulation at S phase at 20 uM after 24 hrs by propidium iodide staining-based flow cytometric analysis (reference value: 22.93%); assay type: functional
[30] = tested on: NCI-H1975; assay: Induction of apoptosis in human NCI-H1975 cells assessed as necrotic cells at 20 uM after 48 hrs by annexin V/FITC-propidium iodide staining-based flow cytometric method ( Rvb = 1.01%); assay type: functional
[31] = tested on: Mus musculus; assay: Toxicity in Balb/c mouse implanted with mouse C26 cells assessed as reduction in body weight at 100 mg/kg, po qd treated for 10 days and measured every 2 days; assay type: organism-based; settings: in vivo
[32] = tested on: NCI-H1975; assay: Induction of apoptosis in human NCI-H1975 cells assessed as viable cells at 10 uM after 48 hrs by annexin V/FITC-propidium iodide staining-based flow cytometric method ( Rvb = 82.5%); assay type: functional; settings: NCI-H1975, 48 h, read-out: Activity
[33] = tested on: NCI-H1975; assay: Cell cycle arrest in human NCI-H1975 cells assessed as accumulation at G0/G1 phase at 10 uM after 24 hrs by propidium iodide staining-based flow cytometric analysis (reference value: 56.11%); assay type: functional
[34] = tested on: NCI-H1975; assay: Cell cycle arrest in human NCI-H1975 cells assessed as accumulation at S phase at 5 uM after 24 hrs by propidium iodide staining-based flow cytometric analysis (reference value: 22.93%); assay type: functional
[35] = tested on: NCI-H358; assay: Antiproliferative activity against human NCI-H358 cells after 72 hrs by MTT assay; assay type: functional, cell-based; settings: NCI-H358, 72 h
[36] = tested on: NCI-H1975; assay: Cell cycle arrest in human NCI-H1975 cells assessed as reduction in accumulation at S phase after 24 hrs by propidium iodide staining-based flow cytometric analysis; assay type: functional
[37] = tested on: NCI-H1975; assay: Induction of apoptosis in human NCI-H1975 cells assessed as late apoptotic cells at 20 uM after 48 hrs by annexin V/FITC-propidium iodide staining-based flow cytometric method ( Rvb = 10.4%); assay type: functional
[38] = tested on: NCI-H1975; assay: Induction of apoptosis in human NCI-H1975 cells assessed as late apoptotic cells at 10 uM after 48 hrs by annexin V/FITC-propidium iodide staining-based flow cytometric method ( Rvb = 10.4%); assay type: functional
[39] = tested on: NCI-H1975; assay: Cell cycle arrest in human NCI-H1975 cells assessed as reduction in accumulation at G2/M phase after 24 hrs by propidium iodide staining-based flow cytometric analysis; assay type: functional
[40] = tested on: NCI-H1975; assay: Induction of apoptosis in human NCI-H1975 cells assessed as early apoptotic cells at 20 uM after 48 hrs by annexin V/FITC-propidium iodide staining-based flow cytometric method ( Rvb = 6.09%); assay type: functional
[41] = tested on: HCC827; assay: Antiproliferative activity against human HCC827 cells after 72 hrs by MTT assay; assay type: functional, cell-based; settings: HCC827, 72 h
[42] = tested on: PC-9; assay: Antiproliferative activity against human PC9 cells after 72 hrs by MTT assay; assay type: functional, cell-based; settings: PC-9, 72 h
[43] = tested on: NCI-H1975; assay: Induction of apoptosis in human NCI-H1975 cells after 48 hrs by annexin V/FITC-propidium iodide staining-based flow cytometric method; assay type: functional, cell-based

- IC50 [3]: 7.46 µM
- solubility [5]: 4080 µg/mL (≈ 10.8 mM)
- IC50 [10]: 4.82 µM
- IC50 [20]: 6.93 µM
- IC50 [26]: 7.48 µM
- IC50 [27]: 5.71 µM
- IC50 [35]: 9.51 µM
- IC50 [41]: 4.87 µM
- IC50 [42]: 11.4 µM
SMILES: C=CCc1ccc(O)c(-c2cc(CC=C)cc(CN3CCCC(N)C3)c2O)c1 (stereo not drawn)
- Activity [1]: 16.05%
- Activity [2]: Dose-dependent effect
- Activity [4]: 6.45%
- Ratio IC50 [6]: 8
- Activity [7]: 18.21%
- Ratio IC50 [8]: 8
- Activity [9]: 22.5%
- Activity [11]: 9.26%
- Activity [12]: 7.56%
- viability at 5 µM [13]: 69.2%
- Activity [14]: Dose-dependent effect
- Ratio IC50 [15]: 8
- Ratio IC50 [16]: 4
- Activity [17]: 65.67%
- Activity [18]: 0.65%
- Ratio IC50 [19]: 4
- Ratio IC50 [21]: 4
- IC50 [22]: 8.43 µM
- Activity [23]: 79.88%
- viability at 20 µM [24]: 2.02%
- Activity [25]: 0.74%
- Activity [28]: 13.83%
- Activity [29]: 4.75%
- Activity [30]: 0.38%
- Activity [31]: Toxic
- viability at 10 µM [32]: 64.6%
- Activity [33]: 70.32%
- Activity [34]: 16.29%
- Activity [36]: Dose-dependent effect
- Activity [37]: 57%
- Activity [38]: 28.3%
- Activity [39]: Dose-dependent effect
- Activity [40]: 40.6%
- Activity [43]: Dose-dependent effect
